The numbers were not newly measured in patent publication US20140296485A1, “ANIONIC DISPLACER MOLECULES FOR HYDROPHOBIC DISPLACEMENT CHROMATOGRAPHY” (SACHEM, INC., priority 2011, published 2014), which cites them from elsewhere.

The conditions of this series: pH-buffering compounds.

As for `O=C(O)CCC(=O)O` [succinic acid], the “pKa of pH buffer” value is listed as 5.2.
Turning to `CC(C)(CC(=O)O)CC(=O)O` [3,3-dimethylglutaric acid], the “pKa of pH buffer” value was 5.9.
